In ChEMBL document CHEMBL1201862, “PubChem BioAssay data set” (2004):
Active and inactive are the calls of the source.

Experiments:
[1] = molecular target: T1, Small ubiquitin-related modifier 1 (Homo sapiens, UniProt P63165); test: SUMO1 protein-protein binding blockers, potency – biochemical, FRET, dose response (AID 624383); type: functional; details: read-out: IC50_Mean
[2] = molecular target: T2, Probable nicotinate-nucleotide adenylyltransferase (Staphylococcus aureus (strain N315), UniProt P65502); type: functional, Staphylococcus aureus subsp. aureus N315; details: read-out: IC50_Mean;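 on IC50 Mean: confirmatory dose-response retesting of NadD inhibitor hits first found in an ultra-high-throughput screen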
[3] = molecular target: Induced myeloid leukemia cell differentiation protein Mcl-1 (Homo sapiens, UniProt Q07820); test: blockers of MCL1 binding to BIM peptide – biochemical, fluorescence polarization, BIM-BH3 peptide, 1536-well, dose response (AID 2217)
[4] = molecular target: T3, Rac GTPase-activating protein 1 (Homo sapiens, UniProt Q9H0H5); test: blockers of MgcRacGAP-driven Rac1 GTP hydrolysis – biochemical, ADP Hunter fluorescence, primary and confirmatory, confirmation (AID 624330); type: functional
T3 sequence (Q9H0H5 whole entry): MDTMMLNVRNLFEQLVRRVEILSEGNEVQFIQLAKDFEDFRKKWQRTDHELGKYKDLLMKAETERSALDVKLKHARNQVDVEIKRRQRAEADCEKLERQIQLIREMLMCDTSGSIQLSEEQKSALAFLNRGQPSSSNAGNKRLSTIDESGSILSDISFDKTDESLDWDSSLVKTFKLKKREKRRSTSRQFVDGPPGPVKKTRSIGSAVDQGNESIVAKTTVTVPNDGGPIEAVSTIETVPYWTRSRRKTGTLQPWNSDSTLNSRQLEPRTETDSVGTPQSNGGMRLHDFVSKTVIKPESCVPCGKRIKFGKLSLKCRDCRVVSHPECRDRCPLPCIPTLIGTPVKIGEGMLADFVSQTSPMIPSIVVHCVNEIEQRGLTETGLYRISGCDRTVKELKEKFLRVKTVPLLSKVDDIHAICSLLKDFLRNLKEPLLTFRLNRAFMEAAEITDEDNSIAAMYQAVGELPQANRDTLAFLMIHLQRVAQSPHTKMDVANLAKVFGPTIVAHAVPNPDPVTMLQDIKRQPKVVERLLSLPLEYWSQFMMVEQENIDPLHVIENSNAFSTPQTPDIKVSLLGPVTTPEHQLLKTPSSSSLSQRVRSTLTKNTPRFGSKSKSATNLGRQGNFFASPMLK

[5] = molecular target: T1, Small ubiquitin-related modifier 1; test: SUMO1 protein interaction blockers, potency – biochemical, fluorescence polarization, uHTS hits, dose response (AID 624382); type: functional; details: read-out: IC50_Mean
[6] = molecular target: T2, Probable nicotinate-nucleotide adenylyltransferase; type: functional, Staphylococcus aureus subsp. aureus N315
[7] = molecular target: Bcl-2-like protein 1 (Homo sapiens, UniProt Q07817); test: blockers of BCLXL peptide binding – biochemical, fluorescence polarization, 1536-well, selectivity assay for MCL1 inhibitor project, dose response (AID 2218)
[8] = viability loss in HeLa cells – cytotoxicity control for MgcRacGAP inhibitor project, dose response (AID 624300); type: functional
[9] = molecular target: Peroxisome proliferator-activated receptor gamma (Homo sapiens, UniProt P37231); test: PPARg transcriptional activation, reporter cells – cell-based, luminescence, assay provider, dose response (AID 504447); type: functional
[10] = molecular target: T4, G-protein coupled receptor 35 (Homo sapiens, UniProt Q9HC97); test: inhibition of zaprinast-stimulated GPR35 beta-arrestin translocation – imaging, U2OS, beta-arrestin-GFP, zaprinast agonist, primary screen (AID 2058); type: functional;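 further: antagonist potency meaning inhibition of agonist-induced arrestin redistribution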
[11] = molecular target: G-protein coupled receptor 55 (Homo sapiens, UniProt Q9Y2T6); test: SAR Analysis of Selective Antagonists of GPR55 using an Image-Based Assay - Set 3. [Related pubchem assays (depositor defined):AID2058, AID2079]; type: functional
[12] = molecular target: T4, G-protein coupled receptor 35; test: SAR Analysis for the identification of Selective Antagonists of ERK1/2 Activity in GPR35-Overexpressing U2OS Cells - Set 2. [Related pubchem assays (depositor defined):AID2058, AID2079]; type: functional, cell-based
[13] = molecular target: T4, G-protein coupled receptor 35; test: SAR analysis of Antagonists of the GPR35 Receptor using an Image-Based Assay - Set 5. [Related pubchem assays (depositor defined):AID2058, AID2079]; type: functional
[14] = molecular target: T5, E3 ubiquitin-protein ligase XIAP (Homo sapiens, UniProt P98170); test: Counter Screen using XIAP-Bir3 of the Chemical Antagonists of IAP-family anti-apoptotic proteins confirmation assay. [Related pubchem assays (depositor defined):AID1018, AID1449, AID1513, AID1638, AID1749, AID1750, AID488957, AID488963]
[15] = molecular target: T5, E3 ubiquitin-protein ligase XIAP; test: Chemical Antagonists of IAP-family anti-apoptotic proteins confirmation. [Related pubchem assays (depositor defined):AID1018, AID1513, AID1514, AID1638, AID1749, AID1750, AID488957, AID488963]
[16] = molecular target: T6, Hexokinase HKDC1 (Homo sapiens, UniProt Q2TB90); test: inhibition of HKDC1 glucose phosphorylation – biochemical, W721R variant, dose response (AID 504729); type: functional
T6 sequence (Q2TB90 whole entry): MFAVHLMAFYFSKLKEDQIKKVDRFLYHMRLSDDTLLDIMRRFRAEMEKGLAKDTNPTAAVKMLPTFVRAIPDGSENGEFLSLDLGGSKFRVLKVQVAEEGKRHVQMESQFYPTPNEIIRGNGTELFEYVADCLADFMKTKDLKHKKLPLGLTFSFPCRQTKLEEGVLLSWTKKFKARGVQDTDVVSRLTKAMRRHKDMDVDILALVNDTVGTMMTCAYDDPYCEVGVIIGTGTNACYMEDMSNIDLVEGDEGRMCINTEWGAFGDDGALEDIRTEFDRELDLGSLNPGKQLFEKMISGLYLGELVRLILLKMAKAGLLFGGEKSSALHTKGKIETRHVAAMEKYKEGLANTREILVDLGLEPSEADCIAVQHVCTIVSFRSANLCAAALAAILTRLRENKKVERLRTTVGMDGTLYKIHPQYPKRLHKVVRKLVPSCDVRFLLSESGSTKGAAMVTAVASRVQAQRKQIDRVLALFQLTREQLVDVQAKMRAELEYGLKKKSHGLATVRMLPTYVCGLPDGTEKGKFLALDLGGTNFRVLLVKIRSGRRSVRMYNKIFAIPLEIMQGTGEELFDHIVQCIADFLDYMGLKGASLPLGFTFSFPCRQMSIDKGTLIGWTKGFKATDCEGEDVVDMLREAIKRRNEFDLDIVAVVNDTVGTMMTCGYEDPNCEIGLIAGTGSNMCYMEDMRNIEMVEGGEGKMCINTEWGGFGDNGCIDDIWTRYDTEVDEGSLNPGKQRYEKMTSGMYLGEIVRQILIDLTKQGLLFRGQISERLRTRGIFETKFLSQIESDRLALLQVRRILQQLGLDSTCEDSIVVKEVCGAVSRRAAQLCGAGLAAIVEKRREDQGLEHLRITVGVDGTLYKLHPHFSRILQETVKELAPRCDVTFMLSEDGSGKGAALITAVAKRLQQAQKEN

[17] = molecular target: Eukaryotic translation initiation factor 4E (Mus musculus, UniProt P63073); test: blockers of eIF4G binding by eIF4E – biochemical, TR-FRET, dose response (AID 855); type: functional;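 further: potency for disrupting eIF4E binding to eIF4GI seen as loss of FRET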
[18] = molecular target: T5, E3 ubiquitin-protein ligase XIAP; test: small molecules displacing peptide from XIAP – biochemical, IAP family, fluorescence polarization (AID 1018); type: functional
[19] = test system: J774.A1; test: Confirmation of image-based Screening Assay for Inhibitors of Phagocytosis. [Related pubchem assays (depositor defined):AID1029, AID1643]; type: functional, cell-based; details: Mus musculus
[20] = test system: T-cell; test: loss of vesicle association with mouse CD8+ T cells – mouse 2C CD8+ T cells, flow cytometry, dose response (AID 485284); type: functional
[21] = molecular target: Voltage-dependent T-type calcium channel subunit alpha-1H (Homo sapiens, UniProt O95180); test: human CACNA1H calcium influx blockade – cell-based, synthetic library set 1, calcium flux (AID 493022); type: functional
[22] = molecular target: Mu-type opioid receptor (Homo sapiens, UniProt P35372); test: SAR Analysis of Antagonists of the MOR Receptor using an Image-Based Assay - Set 3. [Related pubchem assays (depositor defined):AID1777, AID1785, AID1786, AID1966, AID2133, AID2136, AID2284, AID2285, AID2420]; type: functional
[23] = molecular target: T7, Kappa-type opioid receptor (Homo sapiens, UniProt P41145); test: SAR analysis of small molecule antagonists of the kappa opioid receptor via a luminescent beta-arrestin assay - Set 4. [Related pubchem assays (depositor defined):AID1777, AID1778, AID1785, AID1786, AID1966, AID2133, AID2136, AID2285]; type: functional
[24] = molecular target: T7, Kappa-type opioid receptor; test: SAR analysis of Antagonists of the Kappa Opioid Receptor (KOR) using an Image-Based Assay - Set 4. [Related pubchem assays (depositor defined):AID1777, AID1785]; type: functional
[25] = molecular target: Delta-type opioid receptor (Homo sapiens, UniProt P41143); test: SAR Analysis of Antagonists of the DOR Receptor using an Image-Based Assay - Set 3. [Related pubchem assays (depositor defined):AID1777, AID1785]; type: functional;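 further: U2OS cells expressing DOR1 and beta-arrestin GFP stimulated with 100 nM SNC80; imaging of GFP-tagged beta-arrestin moving into spots after receptor activation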
[26] = molecular target: Nonstructural protein 1 (Influenza A virus, UniProt Q194T2); type: functional, Influenza A virus (A/California/07/2009(H1N1))
[27] = test system: HEK293; test: EBV LMP1 TES2 canonical NF-kB signalling blockers – cell-based, HEK293, luciferase, cherry-pick, dose response (AID 588343); type: functional; details: Homo sapiens
[28] = molecular target: T6, Hexokinase HKDC1; test: activation of HKDC1 glucose phosphorylation – biochemical, W721R variant, dose response (AID 504730); type: functional
[29] = molecular target: Hexokinase-1 (Homo sapiens, UniProt P19367); test: HK1 enzyme activation by HKDC1 hits – biochemical, selectivity assay for HKDC1 activator project, dose response (AID 504762); type: functional
[30] = molecular target: T8, Alkaline phosphatase, tissue-nonspecific isozyme (Homo sapiens, UniProt P05186); test: potency against alkaline phosphatase TNAP – biochemical, luminescent, dose response, SAR follow-up (AID 1056)
T8 sequence (P05186 whole entry): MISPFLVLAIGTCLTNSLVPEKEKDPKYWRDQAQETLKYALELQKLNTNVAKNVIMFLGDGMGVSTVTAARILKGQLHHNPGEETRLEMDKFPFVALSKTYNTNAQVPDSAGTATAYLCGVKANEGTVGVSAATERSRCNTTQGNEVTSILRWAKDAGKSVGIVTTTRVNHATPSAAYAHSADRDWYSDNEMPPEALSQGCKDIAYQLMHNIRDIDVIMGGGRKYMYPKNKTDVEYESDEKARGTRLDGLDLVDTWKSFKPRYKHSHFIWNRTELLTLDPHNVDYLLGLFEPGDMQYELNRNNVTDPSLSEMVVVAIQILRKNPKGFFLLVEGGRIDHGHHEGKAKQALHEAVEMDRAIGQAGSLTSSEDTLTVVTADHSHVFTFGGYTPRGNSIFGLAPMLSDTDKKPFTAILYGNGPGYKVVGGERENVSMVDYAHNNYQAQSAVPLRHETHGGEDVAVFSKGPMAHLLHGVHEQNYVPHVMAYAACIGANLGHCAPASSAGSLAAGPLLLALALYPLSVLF

[31] = molecular target: Glyceraldehyde-3-phosphate dehydrogenase (Homo sapiens, UniProt P04406)
Sequence of Glyceraldehyde-3-phosphate dehydrogenase (P04406 whole entry): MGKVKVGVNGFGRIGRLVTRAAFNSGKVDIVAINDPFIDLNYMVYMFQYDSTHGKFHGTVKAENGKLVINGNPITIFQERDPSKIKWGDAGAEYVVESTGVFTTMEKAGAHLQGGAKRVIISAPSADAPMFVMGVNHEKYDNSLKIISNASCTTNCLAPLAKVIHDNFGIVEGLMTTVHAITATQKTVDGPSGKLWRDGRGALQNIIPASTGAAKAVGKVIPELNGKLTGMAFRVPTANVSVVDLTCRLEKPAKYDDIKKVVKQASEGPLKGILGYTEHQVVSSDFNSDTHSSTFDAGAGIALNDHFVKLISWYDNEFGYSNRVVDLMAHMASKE

T5 sequence (P98170 whole entry): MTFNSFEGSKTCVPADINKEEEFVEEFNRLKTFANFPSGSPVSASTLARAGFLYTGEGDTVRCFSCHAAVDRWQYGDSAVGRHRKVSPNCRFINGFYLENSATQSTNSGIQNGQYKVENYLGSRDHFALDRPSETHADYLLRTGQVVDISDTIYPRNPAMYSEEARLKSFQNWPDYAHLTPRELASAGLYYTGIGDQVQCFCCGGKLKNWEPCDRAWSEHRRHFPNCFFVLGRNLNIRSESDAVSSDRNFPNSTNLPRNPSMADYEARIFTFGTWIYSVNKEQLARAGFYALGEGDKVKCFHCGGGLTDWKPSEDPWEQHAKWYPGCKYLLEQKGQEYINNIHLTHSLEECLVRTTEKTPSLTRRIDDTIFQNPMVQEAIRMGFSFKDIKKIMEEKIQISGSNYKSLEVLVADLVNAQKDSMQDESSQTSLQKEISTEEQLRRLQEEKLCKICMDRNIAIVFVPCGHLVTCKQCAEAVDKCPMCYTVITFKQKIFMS
T4 sequence (Q9HC97 whole entry): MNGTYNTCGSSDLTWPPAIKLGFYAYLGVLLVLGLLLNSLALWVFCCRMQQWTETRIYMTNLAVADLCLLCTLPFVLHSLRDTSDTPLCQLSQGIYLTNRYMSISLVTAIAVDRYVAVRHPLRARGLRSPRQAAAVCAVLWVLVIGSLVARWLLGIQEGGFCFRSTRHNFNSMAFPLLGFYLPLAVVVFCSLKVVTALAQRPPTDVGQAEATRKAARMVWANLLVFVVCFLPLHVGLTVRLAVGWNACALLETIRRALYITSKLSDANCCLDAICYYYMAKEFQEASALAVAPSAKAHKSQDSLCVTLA
T1 sequence (P63165 whole entry): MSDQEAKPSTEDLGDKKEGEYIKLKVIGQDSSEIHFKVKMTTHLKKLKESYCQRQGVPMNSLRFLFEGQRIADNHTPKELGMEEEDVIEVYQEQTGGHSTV
T2 sequence (P65502 whole entry): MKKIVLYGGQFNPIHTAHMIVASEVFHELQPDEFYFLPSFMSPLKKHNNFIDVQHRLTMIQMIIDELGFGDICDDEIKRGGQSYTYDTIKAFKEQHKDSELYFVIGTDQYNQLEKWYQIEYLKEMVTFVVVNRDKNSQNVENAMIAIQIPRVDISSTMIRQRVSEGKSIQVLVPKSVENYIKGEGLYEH
T7 sequence (P41145 whole entry): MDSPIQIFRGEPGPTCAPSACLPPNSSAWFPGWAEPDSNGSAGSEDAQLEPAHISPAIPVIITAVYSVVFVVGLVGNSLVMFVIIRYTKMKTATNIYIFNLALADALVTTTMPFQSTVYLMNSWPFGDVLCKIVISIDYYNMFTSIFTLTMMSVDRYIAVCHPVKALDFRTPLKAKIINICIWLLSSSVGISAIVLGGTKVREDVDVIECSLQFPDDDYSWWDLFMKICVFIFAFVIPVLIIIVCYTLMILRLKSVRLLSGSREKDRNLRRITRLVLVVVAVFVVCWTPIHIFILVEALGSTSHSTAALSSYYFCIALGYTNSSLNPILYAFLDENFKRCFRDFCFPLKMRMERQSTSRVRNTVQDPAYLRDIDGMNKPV
Sequence of Delta-type opioid receptor (P41143 whole entry): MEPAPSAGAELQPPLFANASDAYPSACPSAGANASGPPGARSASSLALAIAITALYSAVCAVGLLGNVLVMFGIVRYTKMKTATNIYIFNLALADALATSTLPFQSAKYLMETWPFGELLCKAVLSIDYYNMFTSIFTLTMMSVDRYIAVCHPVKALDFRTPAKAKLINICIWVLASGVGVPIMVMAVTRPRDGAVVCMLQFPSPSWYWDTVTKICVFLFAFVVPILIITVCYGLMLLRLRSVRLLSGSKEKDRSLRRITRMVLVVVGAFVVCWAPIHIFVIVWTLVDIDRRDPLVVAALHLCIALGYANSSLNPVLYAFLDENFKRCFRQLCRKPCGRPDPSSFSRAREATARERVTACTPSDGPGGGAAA
Sequence of Eukaryotic translation initiation factor 4E (P63073 whole entry): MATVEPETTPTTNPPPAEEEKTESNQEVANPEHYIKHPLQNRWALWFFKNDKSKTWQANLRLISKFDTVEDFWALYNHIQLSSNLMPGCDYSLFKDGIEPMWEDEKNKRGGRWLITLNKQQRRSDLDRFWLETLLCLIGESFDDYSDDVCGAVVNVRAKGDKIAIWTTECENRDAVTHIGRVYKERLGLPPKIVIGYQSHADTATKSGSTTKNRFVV
Sequence of Bcl-2-like protein 1 (Q07817 whole entry): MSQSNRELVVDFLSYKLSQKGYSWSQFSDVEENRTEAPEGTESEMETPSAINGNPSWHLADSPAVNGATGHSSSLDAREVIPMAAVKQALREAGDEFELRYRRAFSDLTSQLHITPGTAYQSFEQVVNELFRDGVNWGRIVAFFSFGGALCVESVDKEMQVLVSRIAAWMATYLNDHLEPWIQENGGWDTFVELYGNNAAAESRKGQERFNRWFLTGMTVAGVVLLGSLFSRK
Sequence of Hexokinase-1 (P19367 whole entry): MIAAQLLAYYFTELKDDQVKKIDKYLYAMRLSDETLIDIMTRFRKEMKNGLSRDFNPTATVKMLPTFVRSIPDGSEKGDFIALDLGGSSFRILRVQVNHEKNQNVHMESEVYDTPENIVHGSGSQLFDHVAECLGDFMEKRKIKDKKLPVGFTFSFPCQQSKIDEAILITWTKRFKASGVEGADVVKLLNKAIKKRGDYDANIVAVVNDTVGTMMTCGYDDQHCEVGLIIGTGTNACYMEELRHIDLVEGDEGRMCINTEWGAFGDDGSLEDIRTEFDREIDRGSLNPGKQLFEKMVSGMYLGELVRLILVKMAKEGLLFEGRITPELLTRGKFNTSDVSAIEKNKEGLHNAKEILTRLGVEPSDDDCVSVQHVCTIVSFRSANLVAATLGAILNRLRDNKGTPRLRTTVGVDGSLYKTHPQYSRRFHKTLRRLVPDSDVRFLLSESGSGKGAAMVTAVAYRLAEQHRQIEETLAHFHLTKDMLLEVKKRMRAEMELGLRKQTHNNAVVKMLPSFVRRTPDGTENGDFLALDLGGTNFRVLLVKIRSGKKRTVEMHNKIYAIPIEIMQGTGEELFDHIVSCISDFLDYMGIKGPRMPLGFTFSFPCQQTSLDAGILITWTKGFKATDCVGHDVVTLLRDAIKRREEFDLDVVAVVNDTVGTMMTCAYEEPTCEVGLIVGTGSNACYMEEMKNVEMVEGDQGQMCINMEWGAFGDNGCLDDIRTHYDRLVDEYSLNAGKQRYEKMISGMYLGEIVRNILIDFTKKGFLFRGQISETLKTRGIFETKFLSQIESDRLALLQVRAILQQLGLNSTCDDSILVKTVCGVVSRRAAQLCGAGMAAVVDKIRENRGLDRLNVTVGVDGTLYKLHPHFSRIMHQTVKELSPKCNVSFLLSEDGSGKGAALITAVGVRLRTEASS
Sequence of Mu-type opioid receptor (P35372 whole entry): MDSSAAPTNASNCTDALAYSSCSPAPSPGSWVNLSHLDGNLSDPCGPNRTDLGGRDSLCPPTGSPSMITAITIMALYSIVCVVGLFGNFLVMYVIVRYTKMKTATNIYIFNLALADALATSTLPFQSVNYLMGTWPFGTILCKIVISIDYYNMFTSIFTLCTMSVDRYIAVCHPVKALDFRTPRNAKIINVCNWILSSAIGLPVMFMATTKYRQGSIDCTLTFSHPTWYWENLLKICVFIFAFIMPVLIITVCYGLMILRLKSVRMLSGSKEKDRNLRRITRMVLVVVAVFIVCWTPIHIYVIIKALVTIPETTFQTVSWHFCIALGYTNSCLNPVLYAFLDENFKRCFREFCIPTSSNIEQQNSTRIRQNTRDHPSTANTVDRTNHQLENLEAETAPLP
Sequence of Peroxisome proliferator-activated receptor gamma (P37231 whole entry): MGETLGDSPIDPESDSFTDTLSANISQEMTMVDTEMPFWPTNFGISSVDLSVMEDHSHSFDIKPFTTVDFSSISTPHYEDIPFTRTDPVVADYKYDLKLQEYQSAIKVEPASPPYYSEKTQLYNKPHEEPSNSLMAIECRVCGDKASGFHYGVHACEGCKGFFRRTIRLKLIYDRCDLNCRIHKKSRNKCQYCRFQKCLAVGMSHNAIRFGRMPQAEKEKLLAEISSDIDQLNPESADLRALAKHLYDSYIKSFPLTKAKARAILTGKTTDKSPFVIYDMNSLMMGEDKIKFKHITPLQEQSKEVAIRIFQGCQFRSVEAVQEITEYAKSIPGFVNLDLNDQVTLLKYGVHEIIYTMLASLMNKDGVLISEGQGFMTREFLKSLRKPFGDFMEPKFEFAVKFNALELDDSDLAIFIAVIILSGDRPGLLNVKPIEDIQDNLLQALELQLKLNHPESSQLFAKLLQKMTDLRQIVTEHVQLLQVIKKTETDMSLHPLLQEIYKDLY
Sequence of Nonstructural protein 1 (Q194T2 whole entry): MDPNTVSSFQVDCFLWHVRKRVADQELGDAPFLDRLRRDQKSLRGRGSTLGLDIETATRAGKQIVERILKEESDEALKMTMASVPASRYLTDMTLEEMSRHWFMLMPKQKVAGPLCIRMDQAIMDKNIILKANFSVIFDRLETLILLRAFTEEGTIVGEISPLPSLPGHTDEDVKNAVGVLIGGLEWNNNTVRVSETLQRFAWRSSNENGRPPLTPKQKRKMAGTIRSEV

Q: What does the source list for `O=C(C1=C(O)C(=O)N(c2nc3ccc(Cl)cc3s2)C1c1ccco1)c1ccco1` (stereo unspecified)?
A: IC50 [1]: 8.8 µM (active); IC50 [2]: 56.8 µM (active); IC50 [3]: 28.8 µM (not active); IC50 [4]: 118 µM (active); IC50 [5]: > 66.6 µM (inactive); IC50 [6]: 13.8 µM (active); IC50 [7]: > 109 µM (not active); CC50 [8]: 100 µM (active); EC50 [9]: 700 nM (active)

Q: For `COC(=O)c1cnn(-c2ccc(F)cc2F)c1/C=N/NC(=S)NC(C)(C)C`, which IC50 [10] is on record?
A: < 500 nM (active)

Q: What about the IC50 [11] of the same molecule?
A: 9.08 µM (active)

Q: What about the IC50 [12] of the same molecule?
A: 1.39 µM (active)

Q: What about the IC50 [13] of the same molecule?
A: 160 nM (active)

Q: With `O=C(O)[C@@H](c1ccccc1)N1Cc2ccccc2C1=O` as the molecule, how does the IC50 [14] read?
A: > 200 µM (inactive)

Q: And the IC50 [15]?
A: 65.6 µM (active)

Q: What about the IC50 [16] of the same molecule?
A: 13.7 µM (active)

Q: And the IC50 [17]?
A: 13.8 µM (active)

Q: What about the IC50 [18] of the same molecule?
A: 28.3 µM (active)

Q: With `O=C(COc1ccc(-c2ccccc2)cc1)N1CCN(S(=O)(=O)Cc2ccccc2)CC1` as the molecule, how does the IC50 [19] read?
A: > 25 µM (inactive)

Q: With `CCN(CC)CCNC(=O)CCCNC(=O)Cn1cnc2sc(C)c(C)c2c1=O` as the molecule, how does the EC50 [20] read?
A: 9.52 µM (active)

Q: For `CC(C)(Oc1ccccc1)C(=O)Nc1nnc(-c2ccc3ccccc3c2)o1`, which EC50 [21] is on record?
A: 1.1 µM (active)

Q: With `Cc1ccc(S(=O)(=O)NCc2ccc(C(=O)NCCN3CCC(c4ccccc4)CC3)cc2)cc1` as the molecule, how does the IC50 [22] read?
A: 3.88 µM (active)

Q: What about the IC50 [23] of the same molecule?
A: > 20 µM (inactive)

Q: What about the IC50 [24] of the same molecule?
A: 10.6 µM (inactive)

Q: And the IC50 [25]?
A: > 32 µM (inactive)

Q: What does the source list for `CC(=NNC(=S)N1CCCCC1)c1cccc(C)n1`?
A: IC50 [26]: 3.84 µM (active); AC50 [27]: 2.74 µM (active); EC50 [28]: 14.5 µM (active); EC50 [29]: > 80 µM (inactive)

Q: Which results are given for `c1cncc(-n2cncn2)c1`?
A: IC50 [30]: > 100 µM (inactive); IC50 [31]: > 100 µM (not active)
